Experimental data published in article PMC5484537 (Bioorganic & medicinal chemistry, 2016).
Blank lines part the entries; values can stand above or below the compound they belong to.

Tests used:
TAK1 [1] = target: T1, TAK1 (Homo sapiens, UniProt O43318); experiment: KINOMEscan binding to TAK1; settings: for binding to TAK1 in KINOMEscan: concentration of 1 μM
T1 sequence (O43318 1-606): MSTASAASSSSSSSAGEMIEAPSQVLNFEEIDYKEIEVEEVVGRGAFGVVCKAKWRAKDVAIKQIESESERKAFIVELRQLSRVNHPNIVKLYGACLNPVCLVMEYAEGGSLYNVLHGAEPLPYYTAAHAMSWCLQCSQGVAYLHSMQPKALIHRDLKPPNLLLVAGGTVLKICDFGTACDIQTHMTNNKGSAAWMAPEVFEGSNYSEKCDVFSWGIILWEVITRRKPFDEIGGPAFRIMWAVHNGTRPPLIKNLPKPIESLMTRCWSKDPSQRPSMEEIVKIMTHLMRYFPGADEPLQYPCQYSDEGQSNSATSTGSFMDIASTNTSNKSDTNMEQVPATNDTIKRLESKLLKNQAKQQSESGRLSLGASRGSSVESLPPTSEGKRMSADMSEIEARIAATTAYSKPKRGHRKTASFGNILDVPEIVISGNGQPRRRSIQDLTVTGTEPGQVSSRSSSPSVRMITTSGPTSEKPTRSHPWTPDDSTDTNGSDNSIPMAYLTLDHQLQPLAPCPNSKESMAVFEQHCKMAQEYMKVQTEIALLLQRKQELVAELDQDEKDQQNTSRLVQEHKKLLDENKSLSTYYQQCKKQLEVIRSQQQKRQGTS

TAK1 [2] = target: T2, TAK1 (Homo sapiens, UniProt O43318); experiment: Mass spectrometry analysis of purified TAK1 incubated with compound; assay type: binding; settings: Fig S3
T2 sequence (O43318 with tags, fused parts or gaps): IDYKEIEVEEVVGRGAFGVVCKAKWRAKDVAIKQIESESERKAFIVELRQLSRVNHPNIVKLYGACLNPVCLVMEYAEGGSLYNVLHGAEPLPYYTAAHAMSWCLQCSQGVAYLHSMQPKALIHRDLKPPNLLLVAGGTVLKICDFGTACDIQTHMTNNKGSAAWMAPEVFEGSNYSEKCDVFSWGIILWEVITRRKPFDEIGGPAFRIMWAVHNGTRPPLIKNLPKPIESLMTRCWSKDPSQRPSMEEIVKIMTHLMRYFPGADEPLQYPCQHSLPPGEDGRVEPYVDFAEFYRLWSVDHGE

TAK1 [3] = target: T3, TAK1 (Homo sapiens, UniProt O43318); experiment: Time-dependent experiments, Kinact/Ki determination; assay type: binding
T3 sequence (O43318 1-303 limits assumed): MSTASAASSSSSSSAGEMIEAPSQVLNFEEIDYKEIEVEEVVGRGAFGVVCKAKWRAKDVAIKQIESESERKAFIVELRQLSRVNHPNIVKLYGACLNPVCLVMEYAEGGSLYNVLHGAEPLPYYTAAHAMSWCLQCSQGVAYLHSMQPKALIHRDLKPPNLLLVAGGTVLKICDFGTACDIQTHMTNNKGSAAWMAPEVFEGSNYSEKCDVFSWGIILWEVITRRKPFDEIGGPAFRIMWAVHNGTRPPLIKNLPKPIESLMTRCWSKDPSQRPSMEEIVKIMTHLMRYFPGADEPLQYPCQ

ERK2 = ERK2 (Homo sapiens, UniProt P28482); experiment: Z'-Lyte activity assay, ERK2; assay type: biochemical; settings: compound incubation time of 60 min
Chain of ERK2 (P28482 2-360): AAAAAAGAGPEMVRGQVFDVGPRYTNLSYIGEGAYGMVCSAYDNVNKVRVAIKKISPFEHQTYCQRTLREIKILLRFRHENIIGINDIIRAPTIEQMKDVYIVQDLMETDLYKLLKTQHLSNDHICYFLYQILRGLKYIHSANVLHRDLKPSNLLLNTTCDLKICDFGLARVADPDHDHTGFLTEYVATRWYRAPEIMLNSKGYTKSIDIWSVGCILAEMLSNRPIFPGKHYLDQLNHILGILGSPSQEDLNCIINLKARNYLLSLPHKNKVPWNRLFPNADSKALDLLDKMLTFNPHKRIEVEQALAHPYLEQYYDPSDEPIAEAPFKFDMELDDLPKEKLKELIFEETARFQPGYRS

[4] = system: panel of 468 kinases and mutants; experiment: KINOMEscan in vitro ATP-site competition binding assay, kinome selectivity; set-up: species or system human; settings: KINOMEscan at 1 μM; for selectivity score S(1): 468 kinases and mutants, kinases with scores less than 1

- inhibition score against TAK1 in KINOMEscan (TAK1 [1]; 10 μM): moderate inhibition score
- binding to TAK1 in KINOMEscan (TAK1 [1]): did not display strong binding
SMILES: COc1cc(O)c2c(c1)/C=C/C[C@H](O)[C@H](O)C(=O)/C=C\C[C@H](C)OC2=O [5Z7, 5Z-7-oxozeaenol, reference compound]

- labeling of TAK1 residue (TAK1 [2]): exclusive labeling of Cys174
SMILES: C=CC(=O)Nc1ccccc1Oc1nc(Nc2ccc(N3CCN(C)CC3)cc2)ncc1Cl [compound 2, N-(2-((5-chloro-2-((4-(4-methylpiperazin-1-yl)phenyl)amino)pyrimidin-4-yl)oxy)phenyl)acrylamide]

SMILES: C=CC(=O)Nc1ccccc1Nc1nc(Nc2ccc(N3CCN(C)CC3)cc2)ncc1Cl [compound 5, N-(2-((5-chloro-2-((4-(4-methylpiperazin-1-yl)phenyl)amino)pyrimidin-4-yl)amino)phenyl)acrylamide]
- kinact/KI (TAK1 [3]): 6870 M⁻¹ s⁻¹
- Enzymatic IC50s ERK2 (ERK2): weak activity
- binding to kinases with a cysteine at the DFG-1 position [4]: binds to TAK1 and ten other kinases with a cysteine at the DFG-1 position
- selectivity score S(1) [4]: 0.10

SMILES: C=CC(=O)Oc1ccccc1Nc1nc(Nc2ccc(N3CCN(C)CC3)cc2)ncc1Cl [compound 7, 2-((5-chloro-2-((4-(4-methylpiperazin-1-yl)phenyl)amino)pyrimidin-4-yl)amino)phenyl acrylate]
- selectivity score S(1) [4]: 0.19

SMILES: CCC(=O)Nc1ccccc1Nc1nc(Nc2ccc(N3CCN(C)CC3)cc2)ncc1Cl [compound 9]
- binding to kinases with a cysteine at the DFG-1 position [4]: hits no kinases with a cysteine at the DFG-1 position
- selectivity score S(1) [4]: 0.10

SMILES: C=CC(=O)Nc1ccccc1Oc1nc(Nc2cnn(C(F)F)c2)ncc1Cl [compound 23]
- binding to TAK1 in KINOMEscan (TAK1 [1]): TAK1 was not ranked among the strongest hits
- selectivity score S(5) [4]: 0.1

SMILES: C=CC(=O)Nc1ccccc1Oc1nc(Nc2cnn(CCOC)c2)ncc1Cl [compound 25]
- binding to TAK1 in KINOMEscan (TAK1 [1]): TAK1 was not ranked among the strongest hits
- selectivity score S(5) [4]: 0.03
